Assay results: BindingDB's records for doi:10.1016/s0960-894x(98)00576-9 (Research Triangle Institute, 1999)

Test: Compound was tested for the inhibition of [35S]GTP-gamma-S, binding in Guinea pig Caudate stimulated by the Opioid receptor delta 1 agonist Delta-SNC80

Compound | Ki [nM]
CN1CC[C@]2(c3cccc(O)c3)Cc3ccccc3C[C@]2(C)C1 [3-((4aS,10aS)-2,10a-Dimethyl-1,3,4,5,10,10a-hexahydro-2H-benzo[g]isoquinolin-4a-yl)-phenol] | 222
C[C@]12Cc3ccccc3C[C@@]1(c1cccc(O)c1)CCN(CCc1ccccc1)C2 [3-((4aS,10aS)-10a-Methyl-2-phenethyl-1,3,4,5,10,10a-hexahydro-2H-benzo[g]isoquinolin-4a-yl)-phenol] | 184
